Measured values reported in patent US10000507B2, “Furo- and thieno-pyridine carboxamide compounds useful as pim kinase inhibitors” (Incyte Corporation, priority 2013, dated 2018).

How the values were obtained:
Assay type in all cases: biochemical
Pim-1 = Pim-1 (Homo sapiens (Human), UniProt P11309); assay: Pim-1 kinase assay; conditions: 1 mM ATP, biotin-labeled BAD peptide substrate; read-out: Pim1 IC50
Procedure: (§1) Pim-1 and Pim-3 kinase assays-20 μL reactions were run in white 384 well polystyrene plates dotted with 0.8 μL compound/DMSO in the assay buffer (50 mM Tris, pH 7.5, 0.01% Tween-20, 5 mM MgCl2, 0.01% BSA, 5 mM DTT), containing […] Biotin-labeled BAD peptide substrate (AnaSpec 62269), 1 mM ATP, and 2.5 pM (Pim-1, Invitrogen PV3503) or 1.25 pM (Pim-3, Millipore 14-738) enzyme for 1 h at 25° C. Reactions were stopped by addition of 10 μL STOP Buffer (150 mM Tris, pH=7.5, 150 mM NaCl, 75 mM EDTA, 0.01% Tween-20, 0.3% BSA) supplemented with Phospho-Bad (Ser112) Antibody (Cell Signaling 9291) diluted 666-fold, and Streptavidin donor beads (PerkinElmer 6760002) along with Protein-A acceptor beads (PerkinElmer 6760137) at 15 μg/mL each. Supplementation of the STOP buffer with beads and stopping the reactions were done under reduced light. Prior to the stopping reactions STOP buffer with beads was pre-incubated for 1 h in the dark at room temperature. After stopping the reactions, plates were incubated for 1 h in the dark at room temperature before reading on a PHERAstar FS plate reader (BMG Labtech) under reduced light.

Pim-2 = Pim-2 (Homo sapiens (Human), UniProt Q9P1W9); assay: Pim-2 kinase assay; conditions: 1 mM ATP, fluorescein-labeled CREBtide peptide substrate; read-out: Pim2 IC50
Pim-2, sequence (Q9P1W9 whole entry): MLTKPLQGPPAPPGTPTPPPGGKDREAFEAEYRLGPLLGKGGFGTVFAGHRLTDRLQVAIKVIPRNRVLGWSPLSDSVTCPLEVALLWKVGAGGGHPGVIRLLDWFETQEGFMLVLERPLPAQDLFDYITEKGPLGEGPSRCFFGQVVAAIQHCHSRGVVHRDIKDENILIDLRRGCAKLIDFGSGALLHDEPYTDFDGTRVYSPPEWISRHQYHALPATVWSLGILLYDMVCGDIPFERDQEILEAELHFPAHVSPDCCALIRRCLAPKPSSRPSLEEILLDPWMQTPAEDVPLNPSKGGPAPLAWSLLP
Procedure: Pim-2 kinase assay-20 μL reactions were run in white 384 well polystyrene plates dotted with 0.8 μL compound/DMSO in the assay buffer (50 mM Tris, pH 7.5, 0.01% Tween-20, 5 mM MgCl2, 0.01% BSA, 5 mM DTT), containing 0.05 μm Fluorescein-labeled CREBtide peptide substrate (Invitrogen PV3508), 1 mM ATP, and 1 nM enzyme (Invitrogen PV3649) for 2 h at 25° C. Reactions were stopped by addition of 10 μL TR-FRET Dilution Buffer (Invitrogen PV3574) with 30 mM EDTA and 1.5 nM LanthaScreen Tb-CREB pSer133 antibody (Invitrogen PV3566). After 30 min. incubation at room temperature, plates were read on a PHERAstar FS plate reader (BMG Labtech).

Pim-3 = Pim-3 (Homo sapiens (Human), UniProt Q86V86); assay: Pim-3 kinase assay; conditions: 1 mM ATP, biotin-labeled BAD peptide substrate; read-out: Pim3 IC50
Procedure: as §1

Pim-1, sequence (P11309 whole entry): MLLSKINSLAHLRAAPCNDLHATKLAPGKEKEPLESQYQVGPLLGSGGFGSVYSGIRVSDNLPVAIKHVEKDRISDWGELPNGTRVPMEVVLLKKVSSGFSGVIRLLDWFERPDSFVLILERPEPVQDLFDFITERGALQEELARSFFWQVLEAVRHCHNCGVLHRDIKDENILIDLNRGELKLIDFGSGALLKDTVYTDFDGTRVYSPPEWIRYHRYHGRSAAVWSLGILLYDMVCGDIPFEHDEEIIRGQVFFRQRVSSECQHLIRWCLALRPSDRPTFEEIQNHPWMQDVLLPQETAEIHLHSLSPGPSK

SMILES | IC50 (Pim-1) [nM] | IC50 (Pim-2) [nM] | IC50 (Pim-3) [nM]
CCCc1cnc2c(C(=O)Nc3cnccc3N3CCC[C@H](N)C3)c(N)oc2c1 [Example 51, 2-amino-N-{4-[(3S)-3-aminopiperidin-1-yl]pyridin-3-yl}-6-(propyl)furo[3,2-b]pyridine-3-carboxamide] | ≤ 10 | 10 to 100 | ≤ 10
Nc1oc2cc(F)cnc2c1C(=O)Nc1cnccc1N1CCC[C@H](N)C1 [Example 52, 2-amino-N-{4-[(3S)-3-aminopiperidin-1-yl]pyridin-3-yl}-6-fluoro-furo[3,2-b]pyridine-3-carboxamide] | ≤ 10 | 100 to 1000 | ≤ 10
Nc1oc2cc(Cl)cnc2c1C(=O)Nc1cnccc1N1CCC[C@H](N)C1 [Example 53, 2-amino-N-{4-[(3S)-3-aminopiperidin-1-yl]pyridin-3-yl}-6-chloro-furo[3,2-b]pyridine-3-carboxamide] | ≤ 10 | 10 to 100 | ≤ 10
Nc1oc2cc(Br)cnc2c1C(=O)Nc1cnccc1N1CCC[C@H](N)C1 [Example 54, 2-amino-N-{4-[(3S)-3-aminopiperidin-1-yl]pyridin-3-yl}-6-bromo-furo[3,2-b]pyridine-3-carboxamide] | ≤ 10 | 10 to 100 | ≤ 10
Cc1ccnc2c(C(=O)Nc3cnccc3N3CCC[C@H](N)C3)c(N)oc12 [Example 55, 2-amino-N-{4-[(3S)-3-aminopiperidin-1-yl]pyridin-3-yl}-7-methyl-furo[3,2-b]pyridine-3-carboxamide] | 10 to 100 | > 2000 | ≤ 10
Cn1ncc(NC(=O)c2c(N)oc3cc(C(F)(F)F)cnc23)c1N1CCCC(N)CC1 (stereo not drawn) [Example 56, 2-amino-N-[5-(4-aminoazepan-1-yl)-1-methyl-1H-pyrazol-4-yl]-6-trifluoromethyl-furo[3,2-b]pyridine-3-carboxamide] | ≤ 10 | 10 to 100 | ≤ 10
Cn1ncc(NC(=O)c2c(N)oc3cc(Cl)cnc23)c1N1CCCC(N)CC1 (stereo not drawn) [Example 57, 2-Amino-N-[5-(4-aminoazepan-1-yl)-1-methyl-1H-pyrazol-4-yl]-6-chlorofuro[3,2-b]pyridine-3-carboxamide] | ≤ 10 | 100 to 1000 | ≤ 10
Cn1ncc(NC(=O)c2c(N)oc3c(Cl)ccnc23)c1N1CCCC(N)CC1 (stereo not drawn) [Example 58, 2-amino-N-[5-(4-aminoazepan-1-yl)-1-methyl-1H-pyrazol-4-yl]-7-chlorofuro[3,2-b]pyridine-3-carboxamide] | ≤ 10 | 100 to 1000 | ≤ 10
CCCc1cnc2c(C(=O)Nc3cnn(C)c3N3CCCC(N)CC3)c(N)oc2c1 (stereo not drawn) [Example 59, 2-amino-N-[5-(4-aminoazepan-1-yl)-1-methyl-1H-pyrazol-4-yl]-6-propylfuro[3,2-b]pyridine-3-carboxamide] | ≤ 10 | 10 to 100 | ≤ 10
Nc1oc2cccnc2c1C(=O)Nc1cnccc1N1C[C@@H](N)C[C@@H](C(F)(F)F)C1 [Example 60, 2-amino-N-{4-[(3S,5R)-3-amino-5-(trifluoromethyl)piperidin-1-yl]pyridin-3-yl}-furo[3,2-b]pyridine-3-carboxamide] | ≤ 10 | 10 to 100 | ≤ 10
Nc1oc2cc(C(F)(F)F)cnc2c1C(=O)Nc1cnccc1N1C[C@@H](N)C[C@@H](C(F)(F)F)C1 [Example 61, 2-amino-N-{4-[(3S,5R)-3-amino-5-(trifluoromethyl)piperidin-1-yl]pyridin-3-yl}-6-trifluoromethyl-furo[3,2-b]pyridine-3-carboxamide] | ≤ 10 | 10 to 100 | ≤ 10
Nc1oc2cc(Cl)cnc2c1C(=O)Nc1cnccc1N1C[C@@H](N)C[C@@H](C(F)(F)F)C1 [Example 62, 2-amino-N-{4-[(3S,5R)-3-amino-5-(trifluoromethyl)piperidin-1-yl]pyridin-3-yl}-6-chlorofuro[3,2-b]pyridine-3-carboxamide] | ≤ 10 | 10 to 100 | ≤ 10
Nc1oc2cc(F)cnc2c1C(=O)Nc1cnccc1N1C[C@@H](N)C[C@@H](C(F)(F)F)C1 [Example 63, 2-amino-N-{4-[(3S,5R)-3-amino-5-(trifluoromethyl)piperidin-1-yl]pyridin-3-yl}-6-fluorofuro[3,2-b]pyridine-3-carboxamide] | ≤ 10 | 10 to 100 | ≤ 10
Cc1cncc(NC(=O)c2c(N)oc3cccnc23)c1N1CC[C@H](N)C1 [Example 64, 2-amino-N-{4-[(3S)-3-aminopyrrolidin-1-yl]-5-methylpyridin-3-yl}furo[3,2-b]pyridine-3-carboxamide] | ≤ 10 | 100 to 2000 | ≤ 10
C[C@@H]1C[C@H](N)CN(c2ccncc2NC(=O)c2c(N)oc3cccnc23)C1 [Example 65, 2-amino-N-{4-[(3S,5R)-3-amino-5-methyl-piperidin-1-yl]pyridin-3-yl}-furo[3,2-b]pyridine-3-carboxamide] | ≤ 10 | 10 to 100 | ≤ 10
C[C@H]1CN(c2ccncc2NC(=O)c2c(N)oc3cc(Cl)cnc23)C[C@@H](N)[C@@H]1O [Example 66, 2-amino-N-{4-[(3R,4R,5S)-3-amino-4-hydroxy-5-methylpiperidin-1-yl]pyridin-3-yl}-6-chlorofuro[3,2-b]pyridine-3-carboxamide] | ≤ 10 | 10 to 100 | ≤ 10
CCCc1cnc2c(C(=O)Nc3cnccc3N3C[C@@H](N)[C@H](O)[C@@H](C)C3)c(N)oc2c1 [Example 67, 2-Amino-N-{4-[(3R,4R,5S)-3-amino-4-hydroxy-5-methylpiperidin-1-yl]pyridin-3-yl}-6-propylfuro[3,2-b]pyridine-3-carboxamide] | ≤ 10 | ≤ 10 | ≤ 10
C[C@H]1CN(c2ccncc2NC(=O)c2c(N)oc3cc(C(F)(F)F)cnc23)C[C@@H](N)[C@@H]1O [Example 68, 2-Amino-N-{4-[(3R,4R,5S)-3-amino-4-hydroxy-5-methylpiperidin-1-yl]pyridin-3-yl}-6-(trifluoromethyl)furo[3,2-b]pyridine-3-carboxamide] | ≤ 10 | 10 to 100 | ≤ 10
CCCc1cnc2c(C(=O)Nc3cnccc3N3C[C@@H](N)C[C@@H](C(F)(F)F)C3)c(N)oc2c1 [Example 69, 2-Amino-N-{4-[(3S,5R)-3-amino-5-(trifluoromethyl)piperidin-1-yl]pyridin-3-yl}-6-propylfuro[3,2-b]pyridine-3-carboxamide] | ≤ 10 | ≤ 10 | ≤ 10
CCCc1cnc2c(C(=O)Nc3cnccc3N3C[C@H](C)C[C@H](N)C3)c(N)oc2c1 [Example 70, 2-Amino-N-{4-[(3S,5R)-3-amino-5-methyl-piperidin-1-yl]pyridin-3-yl}-6-propylfuro[3,2-b]pyridine-3-carboxamide] | ≤ 10 | 10 to 100 | ≤ 10
C[C@@H]1C[C@H](N)CN(c2ccncc2NC(=O)c2c(N)oc3cc(F)cnc23)C1 [Example 71, 2-Amino-N-{4-[(3S,5R)-3-amino-5-methyl-piperidin-1-yl]pyridin-3-yl}-6-fluorofuro[3,2-b]pyridine-3-carboxamide] | ≤ 10 | 10 to 100 | ≤ 10
